The record followed here is PMC12881674, “Activation of TRPV3 channels in bladder cancer cells stimulates ATP release” (Molecular Pharmacology, 2025).

For one assay, the target named is T1, mouse TRPV3 (Mus musculus, UniProt Q8K424).
T1 construct: expressed in transfected cells; host or cells: HEK293
T1 sequence (Q8K424 1-791): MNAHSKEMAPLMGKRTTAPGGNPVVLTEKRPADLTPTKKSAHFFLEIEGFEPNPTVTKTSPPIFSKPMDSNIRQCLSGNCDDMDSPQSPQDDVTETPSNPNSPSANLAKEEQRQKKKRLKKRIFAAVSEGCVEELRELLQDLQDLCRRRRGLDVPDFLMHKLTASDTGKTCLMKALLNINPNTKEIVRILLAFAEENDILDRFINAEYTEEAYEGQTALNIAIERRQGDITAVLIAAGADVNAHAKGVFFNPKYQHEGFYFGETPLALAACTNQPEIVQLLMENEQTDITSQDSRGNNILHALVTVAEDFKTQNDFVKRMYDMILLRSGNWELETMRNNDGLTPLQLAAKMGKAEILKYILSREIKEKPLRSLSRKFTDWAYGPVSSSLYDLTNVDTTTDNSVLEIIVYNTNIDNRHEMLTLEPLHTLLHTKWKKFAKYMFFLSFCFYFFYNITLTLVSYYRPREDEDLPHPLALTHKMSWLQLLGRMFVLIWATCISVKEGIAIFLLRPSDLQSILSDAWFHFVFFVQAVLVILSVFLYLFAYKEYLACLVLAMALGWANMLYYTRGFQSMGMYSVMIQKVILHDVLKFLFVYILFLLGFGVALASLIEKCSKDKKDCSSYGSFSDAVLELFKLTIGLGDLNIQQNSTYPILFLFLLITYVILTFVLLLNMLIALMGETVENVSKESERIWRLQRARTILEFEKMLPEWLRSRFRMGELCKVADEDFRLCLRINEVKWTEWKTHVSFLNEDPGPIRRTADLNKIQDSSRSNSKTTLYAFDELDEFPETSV
The assay can be described thus: fluo-4 fluorometric Ca2+ assay, concentration-response, HEK cells expressing mouse TRPV3. The assay is classed as cell-based. As to conditions: HEK cells expressing mouse TRPV3, fluo-4, room temperature, mean ± SD back-transformed from log space, n=5; read-out: EC50 for mouse TRPV3 activation. From the text:
(§1) KU-19-19 (DSMZ no. ACC 395), CAL-29 (DSMZ no. ACC 515), 647-V (DSMZ no. ACC 414), RT-4 (DSMZ no. ACC 412), and RT-112 (DSMZ no. ACC 418) bladder cancer cell lines were obtained from the Leibniz Institute DSMZ (German Collection of Microorganisms and Cell Cultures). Human TRPV3 (NM_145068, purchased from OriGene) and mouse TRPV3 (NM_001371006), rat TRPV1, mouse TRPV2, mouse TRPV4, human TRPM2, human TRPM8, and human TRPA1 were stably transfected in HEK293 cells as described before.[27] […]
(§2) All fluorometric Ca^2+ assays were performed in HBS buffer at room temperature. […] For the primary compound screening and the generation of concentration-response analyses, a robotic liquid handling station (Freedom Evo 150; Tecan) with a built-in custom-made fluorescence plate imager was used. […] Fluorescence was excited using a 470-nm light-emitting diode, and emitted light was imaged through a 515-nm–long pass filter with a cooled Zyla 5.5 camera (Andor). Fluorescence was recorded and processed under the control of the μ-Manager 2.0 gamma software (https://micro-manager.org.[28]). After recording baseline fluorescence, compounds were dispensed into the wells via the liquid handling device. […] For further analysis, fluorescence signals were calculated for each well, corrected for background intensities and normalized to the initial signals. […]

Another assay has as its target T2, mouse TRPV4 (Mus musculus, UniProt Q9EPK8).
T2 construct: expressed in transfected cells; host or cells: HEK293
Briefly: fluo-4 Ca2+ assay selectivity, HEK cells expressing mouse TRPV4. The assay is classed as cell-based. As to conditions: concentrations up to 50 μM.
From the text: as §1, §2

By EC50 is commonly meant the concentration that produces a half-maximal response.

T2 sequence (Q9EPK8 whole entry): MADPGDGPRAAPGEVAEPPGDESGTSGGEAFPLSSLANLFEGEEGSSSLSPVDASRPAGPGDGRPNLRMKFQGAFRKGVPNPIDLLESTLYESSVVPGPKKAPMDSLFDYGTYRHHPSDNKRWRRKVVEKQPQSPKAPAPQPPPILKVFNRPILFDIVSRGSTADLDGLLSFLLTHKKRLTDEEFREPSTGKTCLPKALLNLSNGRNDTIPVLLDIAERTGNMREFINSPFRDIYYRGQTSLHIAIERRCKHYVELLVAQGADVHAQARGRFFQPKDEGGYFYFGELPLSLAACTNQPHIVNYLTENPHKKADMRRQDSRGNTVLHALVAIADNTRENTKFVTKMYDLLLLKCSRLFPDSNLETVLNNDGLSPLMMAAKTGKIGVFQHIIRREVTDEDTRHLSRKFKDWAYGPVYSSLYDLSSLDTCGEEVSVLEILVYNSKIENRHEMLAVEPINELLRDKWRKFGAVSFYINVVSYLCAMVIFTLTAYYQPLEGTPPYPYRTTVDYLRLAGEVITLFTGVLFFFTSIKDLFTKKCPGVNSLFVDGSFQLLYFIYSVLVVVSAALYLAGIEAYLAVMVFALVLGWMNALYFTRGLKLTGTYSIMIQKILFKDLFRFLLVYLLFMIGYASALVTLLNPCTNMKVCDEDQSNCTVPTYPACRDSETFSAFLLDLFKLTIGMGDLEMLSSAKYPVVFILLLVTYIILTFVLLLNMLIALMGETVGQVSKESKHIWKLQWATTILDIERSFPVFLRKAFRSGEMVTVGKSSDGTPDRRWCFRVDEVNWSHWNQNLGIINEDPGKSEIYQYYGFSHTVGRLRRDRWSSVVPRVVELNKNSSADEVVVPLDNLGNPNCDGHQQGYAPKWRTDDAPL

Take `COC(=O)C12CN(Cc3ccccc3)CC1(C(=O)OC)CN(Cc1ccccc1)C2` (centres unmarked) [AV3-1]: at mouse TRPV3, the EC50 amounted to 2 ± 1.4 µM. Moreover, the “effect on TRPV4” value on mouse TRPV4 is reported as “no effect”.
